Test results reported in the supplement of paper PMC13380429.
Structures can show the parent of a compound that is named as a salt.

Experiments:
Settings in all cases: 72 h
U2OS [1] = assay: relative viability EC50 (midpoint between 100% and the lowest measured viability); higher = less toxic
Calu-3 [2] = assay: as above
HepG2 [3] = assay: as above
Caco-2 [4] = assay: as above
Vero E6 [5] = assay: as above
U2OS [6] = assay: cell viability relative to DMSO; higher = less toxic
Calu-3 [7] = assay: as above
HepG2 [8] = assay: as above
Caco-2 [9] = assay: as above
Vero E6 [10] = assay: as above
U2OS [11] = assay: drug sensitivity score (DSS) for viability; higher = more toxic; extreme values may be limits of the assay
Calu-3 [12] = assay: as above
HepG2 [13] = assay: as above
Caco-2 [14] = assay: as above
Vero E6 [15] = assay: as above

Compound | relative viability EC50 (U2OS [1]) [µM] | relative viability EC50 (Calu-3 [2]) [µM] | relative viability EC50 (HepG2 [3]) [µM] | relative viability EC50 (Caco-2 [4]) [µM] | relative viability EC50 (Vero E6 [5]) [µM] | cell viability (U2OS [6]; 1 nM) [%] | cell viability (U2OS [6]; 10 nM) [%] | cell viability (U2OS [6]; 100 nM) [%] | cell viability (U2OS [6]; 1000 nM) [%] | cell viability (U2OS [6]; 10000 nM) [%] | cell viability (Calu-3 [7]; 1 nM) [%] | cell viability (Calu-3 [7]; 10 nM) [%] | cell viability (Calu-3 [7]; 100 nM) [%] | cell viability (Calu-3 [7]; 1000 nM) [%] | cell viability (Calu-3 [7]; 10000 nM) [%] | cell viability (HepG2 [8]; 1 nM) [%] | cell viability (HepG2 [8]; 10 nM) [%] | cell viability (HepG2 [8]; 100 nM) [%] | cell viability (HepG2 [8]; 1000 nM) [%] | cell viability (HepG2 [8]; 10000 nM) [%] | cell viability (Caco-2 [9]; 1 nM) [%] | cell viability (Caco-2 [9]; 10 nM) [%] | cell viability (Caco-2 [9]; 100 nM) [%] | cell viability (Caco-2 [9]; 1000 nM) [%] | cell viability (Caco-2 [9]; 10000 nM) [%] | cell viability (Vero E6 [10]; 1 nM) [%] | cell viability (Vero E6 [10]; 10 nM) [%] | cell viability (Vero E6 [10]; 100 nM) [%] | cell viability (Vero E6 [10]; 1000 nM) [%] | cell viability (Vero E6 [10]; 10000 nM) [%] | drug sensitivity score (U2OS [11]) | drug sensitivity score (Calu-3 [12]) | drug sensitivity score (HepG2 [13]) | drug sensitivity score (Caco-2 [14]) | drug sensitivity score (Vero E6 [15])
O=C(NC(=O)c1c(F)cccc1Cl)NC1c2ccccc2-c2ccccc21 [TMN-355] | > 10 | > 10 | > 10 | > 10 | > 10 | 97.4 | 99.9 | 96.9 | 94.2 | 102 | 88 | 93.9 | 108 | 91.7 | 97.6 | 97.4 | 103 | 101 | 109 | 108 | 93.1 | 93.7 | 86.8 | 92.1 | 104 | 100 | 91.9 | 104 | 98.4 | 106 | 0 | 0 | 0 | 0 | 0
CC[C@@H](c1cccc(O)c1)[C@@H](C)CN(C)C [Tapentadol (hydrochloride)] | > 10 | > 10 | > 10 | > 10 | > 10 | 97 | 99.7 | 102 | 93.9 | 97.8 | 89 | 80.2 | 102 | 90.9 | 92.5 | 97 | 90.6 | 95.2 | 101 | 99.9 | 93.5 | 99.6 | 96.3 | 91.7 | 107 | 103 | 108 | 97.3 | 97.1 | 96.3 | 0 | 0.1 | 0 | 0 | 0
N[C@@H](Cn1ccc(=O)n(Cc2ccccc2C(=O)O)c1=O)C(=O)O [UBP-302] | > 10 | > 10 | > 10 | > 10 | > 10 | 99 | 95.5 | 97.6 | 92.7 | 98.7 | 105 | 94.8 | 107 | 115 | 107 | 103 | 101 | 97.9 | 101 | 104 | 91.6 | 93 | 91.2 | 89.6 | 98.1 | 101 | 98.6 | 103 | 101 | 102 | 0 | 0 | 0 | 0 | 0
O=C(c1cncc(Br)c1)N1CCC(N2CCCC2)CC1 [UNC669] | > 10 | > 10 | > 10 | > 10 | > 10 | 97.1 | 106 | 95.1 | 102 | 93.6 | 99.3 | 110 | 93.7 | 98.4 | 98.3 | 98.3 | 102 | 103 | 93.4 | 101 | 99.1 | 105 | 90.5 | 111 | 92.7 | 101 | 102 | 95.7 | 100 | 97.8 | 0 | 0 | 0 | 0 | 0
C[C@H](NC(=O)/C(C#N)=C/c1cccc(Br)n1)c1ccccc1 [WP1066] | 3.06 | > 10 | 2.66 | 3.45 | 2.96 | 102 | 99.2 | 105 | 98.5 | 0.7 | 102 | 93 | 90.6 | 103 | 75.4 | 100 | 101 | 105 | 94.2 | 10.3 | 95.8 | 96.7 | 96.4 | 104 | 20.1 | 97.3 | 96.8 | 98.3 | 97.6 | 15.9 | 5.7 | 0.8 | 5.8 | 4.1 | 5
CN(Cc1cccc(-c2ccccc2)c1)C(=O)Oc1ccc(-c2ccc(C(N)=O)cc2)cc1 [WWL-123] | > 10 | > 10 | > 10 | > 10 | > 10 | 101 | 98.7 | 102 | 98 | 101 | 101 | 99.7 | 101 | 105 | 99.4 | 95.9 | 110 | 108 | 102 | 100 | 99.1 | 95.4 | 98.1 | 91.8 | 84.8 | 101 | 100 | 101 | 99.5 | 98.3 | 0 | 0 | 0 | 0.4 | 0
C[n+]1c2cc(N)ccc2cc2ccc(N)cc21.Nc1ccc2cc3ccc(N)cc3nc2c1 [acriflavine] | 2.85 | 1.35 | 0.49 | 1.17 | 2.77 | 98.1 | 100 | 96.6 | 95.8 | 0 | 103 | 93.1 | 102 | 73 | 15.4 | 91.6 | 95.3 | 88.9 | 29.2 | 0.7 | 91.9 | 101 | 93.6 | 65.2 | 19.2 | 97 | 100 | 98.8 | 95.1 | 2.8 | 6.1 | 8.6 | 14.9 | 8.5 | 6.1
NC(=O)c1ccc([N+](=O)[O-])cc1Cl [aklomide] | > 10 | > 10 | > 10 | > 10 | > 10 | 107 | 103 | 99.4 | 101 | 103 | 112 | 106 | 112 | 98.9 | 103 | 95.5 | 95.9 | 100 | 91 | 102 | 95.9 | 95.3 | 100 | 92.2 | 98.1 | 98.4 | 98.4 | 95.8 | 96.6 | 104 | 0 | 0 | 0 | 0 | 0
Oc1ncnc2[nH]ncc12 [allopurinol] | > 10 | > 10 | > 10 | > 10 | > 10 | 100 | 103 | 102 | 99.2 | 101 | 100 | 98 | 90.4 | 98 | 94.1 | 113 | 99.6 | 99.5 | 103 | 91.7 | 91.5 | 97 | 104 | 89.6 | 100 | 107 | 104 | 92 | 101 | 93.9 | 0 | 0 | 0 | 0 | 0
NCC[C@H](O)C(=O)N[C@@H]1C[C@H](N)[C@@H](O[C@H]2O[C@H](CN)[C@@H](O)[C@H](O)[C@H]2O)[C@H](O)[C@H]1O[C@H]1O[C@H](CO)[C@@H](O)[C@H](N)[C@H]1O [amikacin] | > 10 | > 10 | > 10 | > 10 | > 10 | 97.5 | 98.3 | 98.9 | 103 | 97.9 | 100 | 99.7 | 94.9 | 105 | 91.5 | 101 | 104 | 96.6 | 92.6 | 113 | 95.7 | 103 | 99.5 | 104 | 104 | 94.8 | 98.5 | 96.9 | 94.5 | 103 | 0 | 0 | 0 | 0 | 0
Cc1ccc(/N=C/N(C)/C=N/c2ccc(C)cc2C)c(C)c1 [amitraz] | > 10 | > 10 | > 10 | > 10 | > 10 | 101 | 99.2 | 94.6 | 95.5 | 87.8 | 95.1 | 104 | 98.1 | 105 | 96.1 | 96 | 81.2 | 103 | 87.4 | 92.2 | 94.1 | 99.5 | 91.8 | 104 | 88.1 | 94.8 | 103 | 95.8 | 95.6 | 104 | 0 | 0 | 0 | 0 | 0
CC(C)(C#N)c1cc(Cn2cncn2)cc(C(C)(C)C#N)c1 [anastrozole] | > 10 | > 10 | > 10 | > 10 | > 10 | 92.7 | 98.3 | 96.3 | 104 | 113 | 97.1 | 98.7 | 93.8 | 116 | 103 | 89.5 | 94.3 | 96.1 | 97.5 | 96.4 | 89.4 | 101 | 92.9 | 96.9 | 95.8 | 94 | 99.2 | 97.7 | 99.3 | 107 | 0 | 0 | 0 | 0 | 0
COc1ccc(C2C(=O)c3ccccc3C2=O)cc1 [anisindione] | > 10 | > 10 | > 10 | > 10 | > 10 | 101 | 97.8 | 102 | 106 | 105 | 112 | 106 | 108 | 95.7 | 108 | 107 | 111 | 105 | 108 | 94.7 | 101 | 93.8 | 100 | 98.3 | 95.3 | 95.1 | 92.1 | 94.7 | 89.5 | 105 | 0 | 0 | 0 | 0 | 0
O=C1C(=O)N(Cc2ccc(Cl)c(Cl)c2)c2ccccc21 [apoptosis-activator-II] | 2.5 | > 10 | > 10 | > 10 | > 10 | 99.2 | 98.9 | 94 | 94.4 | 30.2 | 95.7 | 93 | 103 | 92.6 | 89 | 103 | 98 | 108 | 107 | 84.5 | 91.6 | 104 | 93.3 | 96.7 | 84.5 | 106 | 102 | 103 | 102 | 87.8 | 4.7 | 0 | 0.1 | 0.2 | 0
